In ChEMBL document CHEMBL1201862, “PubChem BioAssay data set” (2004):
Active and inactive are the calls of the source. Cut-off read from the data, not from the text of the source: actives have a measured EC50 and inactives only a lower limit.

Assays:
Streptokinase A = molecular target: T1, Streptokinase A (Streptococcus pyogenes serotype M1, UniProt P10520); assay: S. pyogenes streptokinase expression inhibitors, potency, dose response, plasminogen activation absorbance, OD405 (AID 1914); format: functional, Streptococcus pyogenes M1 GAS;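 note: secreted streptokinase activity via plasminogen activation per viability signal from cell pellet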
T1 sequence (P10520 whole entry): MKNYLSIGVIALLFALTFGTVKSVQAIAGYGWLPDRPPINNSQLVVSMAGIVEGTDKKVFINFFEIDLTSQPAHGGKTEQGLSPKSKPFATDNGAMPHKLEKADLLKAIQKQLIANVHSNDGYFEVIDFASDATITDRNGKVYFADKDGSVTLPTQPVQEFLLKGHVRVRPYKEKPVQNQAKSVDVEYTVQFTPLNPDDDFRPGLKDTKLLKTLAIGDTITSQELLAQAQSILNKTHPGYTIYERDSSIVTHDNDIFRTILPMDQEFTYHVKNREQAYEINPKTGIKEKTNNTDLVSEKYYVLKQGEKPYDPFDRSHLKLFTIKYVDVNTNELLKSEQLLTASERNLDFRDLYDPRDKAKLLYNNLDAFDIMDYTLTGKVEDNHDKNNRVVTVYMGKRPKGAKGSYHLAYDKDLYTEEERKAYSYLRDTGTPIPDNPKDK

Streptococcus = assay: Group A Streptococcus viability loss, dose response, counter-screen for streptokinase expression inhibitor project, luminescence, BacTiterGlo (AID 1915); format: functional, organism-based;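 note: potency for reduction of bacterial viability or growth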
[1] = test system: Streptococcus sp. 'group A'; assay: growth inhibition of control SK(-) GAS strain, dose response, counter-screen for streptokinase expression inhibitor project, luminescence, kanamycin, BacTiterGlo, confirmation (AID 1900); format: functional, organism-based
[2] = molecular target: T2, Corticotropin-releasing factor receptor 2/Corticotropin-releasing factor-binding protein (Homo sapiens, UniProt P24387+Q13324); assay: activators of CRF receptor 2 with binding protein – uHTS hits, confirmation (AID 602473); format: functional; settings: read-out: EC50_Mean
T2 sequence (Q13324 whole entry): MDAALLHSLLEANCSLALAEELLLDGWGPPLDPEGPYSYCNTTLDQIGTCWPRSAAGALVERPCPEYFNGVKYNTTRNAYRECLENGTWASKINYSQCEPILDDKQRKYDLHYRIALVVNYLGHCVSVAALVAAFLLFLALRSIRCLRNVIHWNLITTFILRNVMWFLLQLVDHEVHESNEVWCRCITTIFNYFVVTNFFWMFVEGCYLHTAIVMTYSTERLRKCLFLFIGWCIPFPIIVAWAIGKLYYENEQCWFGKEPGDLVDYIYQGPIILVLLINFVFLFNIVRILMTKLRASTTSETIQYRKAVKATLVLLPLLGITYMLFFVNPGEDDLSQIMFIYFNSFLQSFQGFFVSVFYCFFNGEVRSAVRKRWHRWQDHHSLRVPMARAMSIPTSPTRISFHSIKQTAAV
T2 sequence (P24387 whole entry): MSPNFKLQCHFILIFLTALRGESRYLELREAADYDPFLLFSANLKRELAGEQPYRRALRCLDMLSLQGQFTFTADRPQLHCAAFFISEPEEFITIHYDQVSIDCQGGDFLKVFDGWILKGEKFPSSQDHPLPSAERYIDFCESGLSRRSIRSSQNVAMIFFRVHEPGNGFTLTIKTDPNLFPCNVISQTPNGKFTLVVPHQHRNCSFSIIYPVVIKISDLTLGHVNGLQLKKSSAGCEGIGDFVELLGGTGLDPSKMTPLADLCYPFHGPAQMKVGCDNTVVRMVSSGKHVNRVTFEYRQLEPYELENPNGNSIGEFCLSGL

[3] = inhibitors of intracellular T. cruzi replication, confirmation, NIH3T3 host cells, beta-gal luminescence (AID 2044); format: functional, cell-based;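 note: intracellular parasites grown in NIH/3T3 mouse fibroblasts as host cells; luminescent beta-galactosidase reporter signal from transgenic T. cruzi replicating inside host cells; inhibitors lower the luminescence signal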
[4] = cytotoxicity toward NIH3T3 fibroblasts, dose response, counter-screen, cell-based, ATP luminescence, mouse fibroblasts (AID 2010); format: functional;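 note: cells exposed to compound for about 90 hours before reading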
Protein RecA = molecular target: T3, Protein RecA (Mycobacterium tuberculosis, UniProt P9WHJ3); assay: Fluorescence Cell-Free Homogeneous Dose Retest to Identify Inhibitors of RecA-Intein Splicing Activity. [Related pubchem assays (depositor defined):AID2097, AID2223, AID489010, AID492950]; format: functional
T3 sequence (P9WHJ3 whole entry): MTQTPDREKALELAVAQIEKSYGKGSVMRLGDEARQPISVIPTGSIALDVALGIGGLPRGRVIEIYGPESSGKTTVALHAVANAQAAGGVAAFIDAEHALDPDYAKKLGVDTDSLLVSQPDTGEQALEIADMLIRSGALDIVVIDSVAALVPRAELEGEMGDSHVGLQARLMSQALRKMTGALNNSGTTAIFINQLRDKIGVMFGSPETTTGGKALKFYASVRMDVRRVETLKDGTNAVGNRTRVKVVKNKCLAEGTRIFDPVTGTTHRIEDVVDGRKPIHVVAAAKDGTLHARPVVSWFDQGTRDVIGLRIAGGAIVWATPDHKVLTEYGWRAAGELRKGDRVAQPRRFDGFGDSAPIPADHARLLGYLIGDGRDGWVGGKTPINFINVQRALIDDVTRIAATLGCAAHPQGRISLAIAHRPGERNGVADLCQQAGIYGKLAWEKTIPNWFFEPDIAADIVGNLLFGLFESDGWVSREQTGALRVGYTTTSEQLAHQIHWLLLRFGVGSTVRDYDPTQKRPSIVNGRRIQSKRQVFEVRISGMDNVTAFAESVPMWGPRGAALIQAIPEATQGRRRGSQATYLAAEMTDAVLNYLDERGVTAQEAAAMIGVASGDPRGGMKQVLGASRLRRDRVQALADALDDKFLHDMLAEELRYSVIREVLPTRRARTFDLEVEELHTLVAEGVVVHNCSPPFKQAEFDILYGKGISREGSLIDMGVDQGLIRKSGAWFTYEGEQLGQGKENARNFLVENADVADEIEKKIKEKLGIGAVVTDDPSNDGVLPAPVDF

Structure (SMILES) | EC50 (Streptokinase A) | EC50 (Streptococcus) | EC50 [1] | EC50 [2] | also measured
Cc1ccc(C(=O)Nc2nnc(S(=O)(=O)N3CCN(c4ccc(F)cc4)CC3)s2)cc1 | > 150 µM (not active) | 109 µM (active) | – | – | –
O=C(COc1cccc(Cl)c1)Nc1ccccc1N1CCCCC1 | 11.1 µM (active) | > 150 µM (not active) | 21.1 µM (active) | – | –
COc1ccc(C(=O)Cn2cnc3ccccc3c2=O)c(OC)c1 | – | – | – | > 53 µM (inactive) | –
COc1ccc(CN(C2CCCCC2C)S(=O)(=O)c2ccc(S(=O)(=O)N(C)C)cc2)cc1OC (configuration not stated) | – | – | – | 5.42 µM (active) | –
Cc1nc2c(C)cccn2c(=O)c1NC(=O)c1ccc2c(c1)OCO2 | > 150 µM (not active) | > 150 µM (not active) | > 150 µM (not active) | – | –
COc1ccc(NC(=N)SCc2ccccn2)cc1 | – | – | – | 15.6 µM (active) | –
Cc1ccsc1C(=O)N(c1nc2ccccc2s1)c1c(C)cccc1C | 7.09 µM (inconclusive) | > 150 µM (not active) | 16.7 µM (active) | – | –
Cc1ccc(S(=O)(=O)N2CCN(c3ncnc4scc(-c5ccccc5)c34)CC2)cc1 | – | – | – | 2.65 µM (active) | –
COc1ccc(CNS(=O)(=O)NCc2ccccc2)cc1OC | – | – | – | > 53 µM (inactive) | –
CC(C)(C)c1ccccc1OCCCCCn1ccnc1 | > 150 µM (not active) | > 150 µM (not active) | 19.1 µM (active) | – | EC50 [3]: 1.32 µM (active); EC50 [4]: > 60 µM (not active)
O=C(c1ccc(S(=O)(=O)Nc2ccccc2)cc1)N1CCCC(C(F)(F)F)C1 (configuration not stated) | – | – | – | 10.5 µM (active) | –
CCN=C(S)N(CCc1ccc(S(N)(=O)=O)cc1)C1CC(=O)N(c2ccccc2)C1=O (configuration not stated) | – | – | – | 18.5 µM (active) | –
CC1(c2ccc(OC(F)F)cc2)NC(=O)N(CC(=O)Nc2ccc3c(c2)OCO3)C1=O (configuration not stated) | – | – | – | 5.24 µM (active) | –
FC(F)(F)c1cccc(Nc2nc(N3CCCC3)nc(N3CCCC3)n2)c1 | 17.5 µM (inconclusive) | 9.85 µM (active) | 4.06 µM (active) | – | –
CCOc1ccc2c(c1)c1nnc(SCC(=O)N3CCC(C)CC3)nc1n2C | > 150 µM (not active) | > 150 µM (not active) | 24.2 µM (active) | – | –
Cc1ccc(N(Cc2cc(=O)[nH]c3ccccc23)C(=O)CCl)cc1 | – | – | – | – | EC50 (Protein RecA): > 380 µM (inconclusive)

Structure (SMILES) | EC50 (Streptokinase A) | EC50 (Streptococcus) | EC50 [1] | EC50 [2] | also measured
Cc1ccc2c(c1)C(=O)CC1(CCC(C(C)(C)C)CC1)O2 (configuration not stated) | 12.6 µM (active) | 14.2 µM (active) | 9.31 µM (active) | – | –
O=C(NC(=S)Nc1ccc(Cl)c(C(=O)O)c1)c1cccc(COc2ccccc2)c1 | > 150 µM (not active) | > 150 µM (not active) | 13 µM (active) | – | –
CCCCCCCCCCC(=O)NNC(=O)c1c(O)c2ccccc2n(CC)c1=O | > 150 µM (not active) | 4.38 µM (active) | 0.337 µM (active) | – | –
CCOC(=O)c1ccc(CNC(=O)Cn2nnc(-c3ccccc3)n2)o1 | – | – | – | > 53 µM (inactive) | –
O=C(CSC(=S)N1CCCCC1)Nc1nc(-c2ccccc2)c(-c2ccccc2)o1 | > 150 µM (not active) | > 150 µM (not active) | 1.51 µM (active) | – | –
CCCn1c(=O)c(C(=O)NNC(=O)c2ccccc2Cl)c(O)c2ccccc21 | – | – | – | 5.81 µM (active) | –
CCO/C=C1/C(=O)N(C)C(=O)c2cc(OC)ccc21 | – | – | – | – | EC50 (Protein RecA): > 380 µM (inactive)
CCOC(=O)c1cnc(-n2nc(C)cc2C)nc1N(CC)CC | > 150 µM (not active) | > 150 µM (not active) | 25.3 µM (active) | – | –
COc1ccc(-c2coc3c(C)c4oc(=O)c(CCC(=O)O)c(C)c4cc23)cc1 | > 150 µM (not active) | 15.4 µM (active) | 3.74 µM (active) | – | –
CCCn1c(NC(=O)C23CC4CC(CC(O)(C4)C2)C3)nc2ccccc21 | > 150 µM (not active) | > 150 µM (not active) | – | – | –
Cc1nn(C)c(C(=O)N/N=C/c2cccc(Oc3ccccc3)c2)c1Br | – | – | – | > 53 µM (inactive) | –
CC(=O)Nc1ccc(/C=N/N2C(=O)NC(C)(c3ccc(OC(F)F)cc3)C2=O)cc1 (configuration not stated) | – | – | – | 1.37 µM (active) | –
CC(=O)Oc1ccc(/C=N/NS(=O)(=O)c2ccccc2)cc1 | > 150 µM (not active) | > 150 µM (not active) | > 150 µM (not active) | – | –
Cc1cc(Br)c(OCc2ccc(C(=O)N/N=C3\CC4CC=CC34)cc2)c(Br)c1 (configuration not stated) | > 150 µM (not active) | 44.5 µM (active) | 4.08 µM (active) | – | –
CC(=N)/C(C#N)=C(/O)CSc1nc2cc(Cl)ccc2c(=O)n1Cc1ccco1 | > 150 µM (not active) | 16.2 µM (active) | 11.8 µM (active) | – | EC50 [3]: 3.43 µM (active); EC50 [4]: > 60 µM (inconclusive)
C/C(=N\NC(=O)c1ccc(Cl)c(Cl)c1)c1ccc(Br)s1 | > 150 µM (not active) | 14.7 µM (active) | 2.12 µM (active) | – | EC50 [3]: 0.597 µM (active); EC50 [4]: 8.11 µM (active)
